Here are results for one compound from patent US20250382631A1, “PROTAC-CID SYSTEMS FOR USE IN MULTIPLEX GENE REGULATION” (William Marsh Rice University, priority 2022, published 2025).

Test [1] has as its system Cre-mediated GFP expression in HEK293T cells. The test can be described thus: Inducible Cre site-specific DNA recombination, LoxP-STOP-LoxP-GFP reporter. The class given is cell-based, human. The protocol:
Fluorescence assay using flow cytometry analysis. Cells were treated with 0.05% Trpsin EDTA (Thermo Fisher Scientific no. 25300054) or TrypLE (Thermo Fisher Scientific no. 12605028) after transfection and centrifuged at 3000 g for 5 min. Supernatant was removed and the cell pellet was resuspended with 200 μL phosphate buffered saline (PBS) without calcium and magnesium (Thermo Fisher Scientific no. 10010023). Cells were transferred into 12×75 mm flow tubes (Global Scientific no. 110410). Cells were analyzed by MA900 flow cytometry (SONY). 405 nm laser (FL6 filter) was used for testing the BFP channel. 488 nm (FL1 filter) was used for testing the EYFP and GFP channel. Automated alignment using Automatic Setup Beads kit (SONY no. LE-B3001) is performed before running samples. In FIGS. 3A, 3B, and 17, experiments were performed under 2% FSC, 17% BSC, 24% FL1. In FIG. 18, experiments were performed under 2% FSC, 17% BSC, 27% FL1. All the other experiments were performed under 2% FSC, 17% BSC, 24% FL1 and 27% FL6. Flow cytometry data was processed and analyzed by FlowJo 10. Events were first gated with forward scatter-Area (FSC-A) and side scatter-Area (SSC-A) to select viable cells and remove the debris and dead cells. Cells were further gated with FSC-A and FSC-Height (FSC-H) for selecting single cells. The mean intensity of the reporter fluorescent protein (BFP and EYFP) in viable and single cell populations were calculated by FlowJo 10 as the mean of FL6-A and FL1-A. When calculating the fold change of relative fluorescence units (RFU), the relative fluorescence units of EYFP was calculated by dividing the mean of fluorescence intensity of EYFP with the mean of BFP fluorescence intensity for normalization as the following formula: […]
Transfection and microscopy. […]

Test [2] deals with endogenous HEK3 locus in HEK293T cells. The test can be described thus: Inducible prime editing, His6 Tag insertion (Sanger sequencing, TIDE). The class given is cell-based, human. The note with it: high TRE3G-driven PE2 plasmid dose (120 ng per well), 100 nM dTAG-13, 3 days, FIG. 3H. As for the experimental part: Prime editing measurement. HEK293T cells were seeded into 96 well plates (Corning no. 3598). When the cells reach 20% confluency, 265 ng to 290 ng plasmids (See Table 1 for plasmid dosage used in each condition) were firstly mixed with 25 μL DMEM. 0.5 μL Lipofectamine 2000 (Life Technology no. 11661089) was incubated with 25 μL DMEM for 5 min. Next, plasmid solution was mixed with the Lipofectamine 2000 solution for 20 min and added into the cells gently. After 12 h, the supernatants were changed with fresh 10% FBS (Thermo Fisher Scientific no. 10437028) DMEM medium (Thermo Fisher Scientific no. 10569044) supplied with Puromycin (10 μg/mL Thermo Fisher Scientific no. A1113803) and 100 nM dTAG-13 (TOCRIS no. 6605/5) or DMSO (Sigma, no. D8418). 3 days post-induction, the supernatant was removed and supplied with 100 μL lysis buffer (10 mM tris-HCl (pH=7.5), 0.05% SDS, and proteinase K (25 μg/mL, Thermo Fisher Scientific no. 01169965)) followed by 37° C. 1 h, 58° C. 30 min and inactivated at 95° C. for 20 min. […] The insertion efficiency was analyzed online in TIDE (https://tide.nki.nl/) (Brinkman et al., 2018) with the setting (left boundary=100, Decomposition window (115-685 bp), Indel size range (28 bp), P-value threshold=0.001).

`CC[C@H](C(=O)N1CCCC[C@H]1C(=O)O[C@H](CCc1ccc(OC)c(OC)c1)c1ccccc1OCC(=O)NCCCCCCOc1cccc2c1C(=O)N(C1CCC(=O)NC1=O)C2=O)c1cc(OC)c(OC)c(OC)c1` (stereo partly drawn) [dTAG-13]: in test [1] (100 nM dTAG-13 or 1 μM dBRD9, 2 days, FIGS. 3A and 17), the “GFP signal, two-layer genetic circuit driving Cre” value is listed as “strong GFP signal”. Besides, in test [1] (FIG. 3B), the “GFP expression, three-layer circuit (Dre, Rox-STOP-Rox-Cre)” value is “robust GFP expression only in the presence of dTAG-13”. Moreover, the “prime editing efficiency (His6 Tag insertion)” value in test [2] is “more than 20%”.
